Consider seven molecules from paper PMC12704298, “Divergent acetyl-CoA binding modes mediate allosteric inhibition of bacterial hybrid-type malic enzymes” (The Journal of Biological Chemistry, 2025).

Series [1] concerns the target T1, EcMaeB (Escherichia coli, UniProt P76558).
T1 construct: His-tag (C); made in house; host or cells: E. coli BL21(DE3)
T1 sequence (P76558 1-759): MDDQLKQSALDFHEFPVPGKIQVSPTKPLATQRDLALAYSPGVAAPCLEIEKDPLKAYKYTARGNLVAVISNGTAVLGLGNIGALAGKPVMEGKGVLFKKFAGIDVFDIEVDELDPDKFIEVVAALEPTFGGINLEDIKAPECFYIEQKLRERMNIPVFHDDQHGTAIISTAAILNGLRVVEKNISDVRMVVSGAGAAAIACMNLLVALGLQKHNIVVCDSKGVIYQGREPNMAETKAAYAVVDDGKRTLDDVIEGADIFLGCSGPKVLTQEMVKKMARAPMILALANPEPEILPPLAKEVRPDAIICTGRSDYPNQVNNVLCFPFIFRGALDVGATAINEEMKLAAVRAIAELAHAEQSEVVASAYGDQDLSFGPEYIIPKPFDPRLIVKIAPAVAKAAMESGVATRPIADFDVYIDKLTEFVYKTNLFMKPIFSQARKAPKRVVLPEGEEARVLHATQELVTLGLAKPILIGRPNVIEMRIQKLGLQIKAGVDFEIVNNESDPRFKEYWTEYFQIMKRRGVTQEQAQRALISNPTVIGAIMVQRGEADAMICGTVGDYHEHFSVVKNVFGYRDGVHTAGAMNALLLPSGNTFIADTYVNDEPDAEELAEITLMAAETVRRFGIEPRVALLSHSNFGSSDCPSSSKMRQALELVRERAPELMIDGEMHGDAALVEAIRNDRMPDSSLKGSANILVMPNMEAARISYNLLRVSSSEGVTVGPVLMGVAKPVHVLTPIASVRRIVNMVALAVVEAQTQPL
The series can be described thus: Enzyme kinetic parameters (Michaelis-Menten, substrate inhibition, empirical Hill plots). Format: biochemical. On the procedure: (§1) Spectrophotometric assays were used to monitor the oxidative decarboxylation of L-malate to pyruvate using a SpectraMax M2, UV-Visible spectrophotometer (Molecular Devices) operated by SoftMax Pro Software with kinetic mode. All assays recorded the Δabsorbance at 340 nm (NADPH) at 30 °C. Assays were initiated by the addition of enzyme to the otherwise complete reaction mixture. […] Acetyl-CoA was tested at 5 μM.
(§2) For this substrate inhibition model, x should be fixed. […] The plots shown in Fig. S1F were fitted to the empirical Hill equation: v0=Vmax·[malate]^h/(K0.5h+[malate]^h) where K0.5 indicates the substrate concentration for half-saturation. When h is equal to 1, K0.5 matches Michaelis constant Km.

A further series has as its target T2, BbMaeB (Bdellovibrio bacteriovorus, UniProt A0A1Z3N8R4).
T2 sequence (A0A1Z3N8R4 1-776): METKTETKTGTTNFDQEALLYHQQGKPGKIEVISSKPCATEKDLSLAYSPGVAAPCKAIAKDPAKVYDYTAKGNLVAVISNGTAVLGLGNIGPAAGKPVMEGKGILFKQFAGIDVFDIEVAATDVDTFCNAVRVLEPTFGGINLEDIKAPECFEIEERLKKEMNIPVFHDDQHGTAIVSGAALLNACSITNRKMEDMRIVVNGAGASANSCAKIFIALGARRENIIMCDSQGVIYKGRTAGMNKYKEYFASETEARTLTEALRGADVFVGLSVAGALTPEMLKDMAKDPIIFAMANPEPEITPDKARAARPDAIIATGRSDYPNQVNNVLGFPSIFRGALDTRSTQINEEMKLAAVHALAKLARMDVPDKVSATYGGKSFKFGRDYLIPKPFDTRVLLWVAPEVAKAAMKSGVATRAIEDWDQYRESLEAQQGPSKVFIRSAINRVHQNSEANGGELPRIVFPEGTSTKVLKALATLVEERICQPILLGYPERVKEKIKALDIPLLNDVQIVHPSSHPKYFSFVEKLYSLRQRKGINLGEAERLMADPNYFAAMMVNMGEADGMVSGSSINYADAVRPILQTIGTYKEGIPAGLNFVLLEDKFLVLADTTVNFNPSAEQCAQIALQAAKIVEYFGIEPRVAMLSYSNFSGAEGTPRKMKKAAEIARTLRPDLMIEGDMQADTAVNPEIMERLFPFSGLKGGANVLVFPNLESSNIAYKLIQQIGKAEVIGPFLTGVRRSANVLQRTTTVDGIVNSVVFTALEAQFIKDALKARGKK
The description is as above. Format: biochemical, Bdellovibrio bacteriovorus strain SSB218315. On the procedure:
as §1, §2

For series [2], the target named is T1, EcMaeB. Also noted: method as in PMID 17557829. To be noted: previous study; cited from earlier work.
A further series concerns DME. Also noted: method as in PMID 10407149. Particulars: cited from earlier work.
Substrate in series [3]: O=C(O)C[C@H](O)C(=O)O
The series can be described thus: Enzyme kinetic parameters (Michaelis-Menten, substrate inhibition, empirical Hill plots). Format: biochemical, Bdellovibrio bacteriovorus strain SSB218315. Particulars: other: BbMaeB; substrate inhibition plot, NADP+ fixed 0.5 mM, without acetyl-CoA; pH 7.5; 30.0 °C.

Substrate in series [4]: O=C(O)C[C@H](O)C(=O)O
Described as above. It counts as biochemical, Escherichia coli. To be noted: other: EcMaeB; substrate inhibition plot, NADP+ fixed 0.5 mM, without acetyl-CoA; pH 7.5; 30.0 °C.

Series [5] concerns the molecule itself. In words: crystal structure; EcMaeB without cofactors and acetyl-CoA; 20 mg/ml protein, 0.2 M potassium chloride pH 7.0, 20% v/v PEG 3350, 20 °C; homohexamer.

For `O=C(O)C[C@H](O)C(=O)O` [malate, L-malate], the “K0.5 from the empirical Hill equation” value stood at 18.1 ± 3.20 mM at EcMaeB [1] (EcMaeB, in the presence of acetyl-CoA, 0.5 mM NADP+, 300 nM enzyme) and 7.44 ± 1.21 mM at BbMaeB (in the presence of acetyl-CoA, 0.5 mM NADP+, 300 nM enzyme).
`[Mg+2]` [Mg^2+]: the “concentration at which EcMaeB activity is inhibited” value at EcMaeB [2] is “above 4 mM”. Besides, on EcMaeB [1], the “effect of different Mg2+ concentrations on kinetic parameters” value was “no significant changes in kinetic parameters”.
`CCC(=O)SCCNC(=O)CCNC(=O)[C@H](O)C(C)(C)COP(=O)(O)OP(=O)(O)OC[C@H]1O[C@@H](n2cnc3c(N)ncnc32)[C@H](O)[C@@H]1OP(=O)(O)O` [propionyl-CoA]: in the series on DME, the “effect on DME activity” value is on record as “inhibited”.
For the molecule NADP^+, the “change of Km for NADP+ with Mn2+ instead of Mg2+” value on EcMaeB [1] (EcMaeB, 5 mM MnCl2) is listed as “approximately doubled”; at BbMaeB (5 mM MnCl2), “approximately doubled”.
For the molecule `CCCC(=O)SCCNC(=O)CCNC(=O)[C@H](O)C(C)(C)COP(=O)(O)OP(=O)(O)OC[C@H]1O[C@@H](n2cnc3c(N)ncnc32)[C@H](O)[C@@H]1OP(=O)(O)O` [butyryl-CoA], in the series with DME, the “effect on DME activity” value was “inhibited”.

B1: BbMaeB (Bdellovibrio bacteriovorus) (protein)
chain: METKTETKTGTTNFDQEALLYHQQGKPGKIEVISSKPCATEKDLSLAYSPGVAAPCKAIAKDPAKVYDYTAKGNLVAVISNGTAVLGLGNIGPAAGKPVMEGKGILFKQFAGIDVFDIEVAATDVDTFCNAVRVLEPTFGGINLEDIKAPECFEIEERLKKEMNIPVFHDDQHGTAIVSGAALLNACSITNRKMEDMRIVVNGAGASANSCAKIFIALGARRENIIMCDSQGVIYKGRTAGMNKYKEYFASETEARTLTEALRGADVFVGLSVAGALTPEMLKDMAKDPIIFAMANPEPEITPDKARAARPDAIIATGRSDYPNQVNNVLGFPSIFRGALDTRSTQINEEMKLAAVHALAKLARMDVPDKVSATYGGKSFKFGRDYLIPKPFDTRVLLWVAPEVAKAAMKSGVATRAIEDWDQYRESLEAQQGPSKVFIRSAINRVHQNSEANGGELPRIVFPEGTSTKVLKALATLVEERICQPILLGYPERVKEKIKALDIPLLNDVQIVHPSSHPKYFSFVEKLYSLRQRKGINLGEAERLMADPNYFAAMMVNMGEADGMVSGSSINYADAVRPILQTIGTYKEGIPAGLNFVLLEDKFLVLADTTVNFNPSAEQCAQIALQAAKIVEYFGIEPRVAMLSYSNFSGAEGTPRKMKKAAEIARTLRPDLMIEGDMQADTAVNPEIMERLFPFSGLKGGANVLVFPNLESSNIAYKLIQQIGKAEVIGPFLTGVRRSANVLQRTTTVDGIVNSVVFTALEAQFIKDALKARGKK
On to B1, for which the Km in series [3] is 6.22 ± 1.55 mM.

B2: malic enzyme B (MaeB) from Escherichia coli (enzyme, UniProt P76558 1-759, looked up)
chain: MDDQLKQSALDFHEFPVPGKIQVSPTKPLATQRDLALAYSPGVAAPCLEIEKDPLKAYKYTARGNLVAVISNGTAVLGLGNIGALAGKPVMEGKGVLFKKFAGIDVFDIEVDELDPDKFIEVVAALEPTFGGINLEDIKAPECFYIEQKLRERMNIPVFHDDQHGTAIISTAAILNGLRVVEKNISDVRMVVSGAGAAAIACMNLLVALGLQKHNIVVCDSKGVIYQGREPNMAETKAAYAVVDDGKRTLDDVIEGADIFLGCSGPKVLTQEMVKKMARAPMILALANPEPEILPPLAKEVRPDAIICTGRSDYPNQVNNVLCFPFIFRGALDVGATAINEEMKLAAVRAIAELAHAEQSEVVASAYGDQDLSFGPEYIIPKPFDPRLIVKIAPAVAKAAMESGVATRPIADFDVYIDKLTEFVYKTNLFMKPIFSQARKAPKRVVLPEGEEARVLHATQELVTLGLAKPILIGRPNVIEMRIQKLGLQIKAGVDFEIVNNESDPRFKEYWTEYFQIMKRRGVTQEQAQRALISNPTVIGAIMVQRGEADAMICGTVGDYHEHFSVVKNVFGYRDGVHTAGAMNALLLPSGNTFIADTYVNDEPDAEELAEITLMAAETVRRFGIEPRVALLSHSNFGSSDCPSSSKMRQALELVRERAPELMIDGEMHGDAALVEAIRNDRMPDSSLKGSANILVMPNMEAARISYNLLRVSSSEGVTVGPVLMGVAKPVHVLTPIASVRRIVNMVALAVVEAQTQPL
notes: MaeB of E. coli, gene amplified from genomic DNA of strain SHuffle T7; Cloned in pET-28a(+); Homohexamer in the crystal and in cryo-EM; also called EcMaeB; EcMaeBapo; source: E. coli BL21(DE3), purified (HisTrap TALON, size-exclusion chromatography)
Take B2: the Km in series [4] amounted to 20.7 ± 8.83 mM. In series [5], the “stoichiometry N” value came out at 6.
